# Paper PMC8945814, “The Pyrazolo[3,4-d]Pyrimidine Derivative Si306 Encapsulated into Anti-GD2-Immunoliposomes as Therapeutic Treatment of Neuroblastoma” (Biomedicines, 2022)
# Key:
# [1] = set-up: method as in PMID 31248184; conditions: 25 mg/kg, free compound in vivo; cited from earlier work
# non-tumoral cells = conditions: cited from earlier work
# SH-SY5Y = assay: MTT cytotoxicity assay; format: cell-based; conditions: Homo sapiens, 24 h exposure, 96 h total, ± S.D.
# Method: (§1) Cytotoxicity experiments were performed to evaluate the effectiveness of Si306, either free (dissolved in DMSO) or encapsulated into untargeted and GD2-targeted liposomes. Briefly, IMR-32, HTLA-230 and SH-SY5Y cells were seeded in 96-well plates (8 × 10^3 cells/well). Human fibroblasts were used as GD2-negative healthy control cells (5 × 10^3 cells/well). The day after seeding, cells were incubated with increasing concentration of Si306 (0.1, 1.0, 10.0 and, 100.0 μM) either free or liposomes-encapsulated, for 24 h at 37 °C. Cells were then washed twice with PBS before replacing them with fresh complete medium and incubating for an additional 72 h (total incubation time equal to 96 h). At the end of the incubation, the MTT (Sigma) assay was performed. The tetrazolium dye was added, then plates were incubated for 3–4 h at 37 °C; formazan crystals were then dissolved in acid isopropanol, and then the optical density of the stained solution was quantified by the use of a Multiskan™ FC Microplate Photometer (Thermo Fisher Scientific Italia, Monza, Italy) at the dual wavelengths of 570 and 650 nm.
# IMR-32 = assay: MTT cytotoxicity assay; format: cell-based; conditions: Homo sapiens, 24 h exposure, 96 h total, ± S.D.
# Method: as §1
# HTLA-230 = assay: MTT cytotoxicity assay; format: cell-based; conditions: Homo sapiens, 24 h exposure, 96 h total, ± S.D.
# Method: as §1
# [2] = tested on: subcutaneous NB animal model; conditions: oral administration; cited from earlier work
# c-Src tyrosine kinase = conditions: cited from earlier work
# [3] = cited from earlier work
smiles,measurement,setting,value
ClC(Cn1ncc2c(Nc3cccc(Br)c3)nc(SCCN3CCOCC3)nc21)c1ccccc1 (centres unmarked) [Si306],signs of toxicity,[1],without signs of toxicity
same,activity in non-tumoral cells,non-tumoral cells,negligible activity
same,IC50,SH-SY5Y,19.6 ± 0.7 µM
same,IC50,IMR-32,5.9 ± 1.4 µM
same,IC50,HTLA-230,2.9 ± 0.3 µM
same,tumor growth,[2],delay of tumor growth
same,Ki,c-Src tyrosine kinase,0.13 µM
same,water solubility,[3],low water solubility
